Reference: PMC9317902, “Multi-Targeting Approach in Glioblastoma Using Computer-Assisted Drug Discovery Tools to Overcome the Blood–Brain Barrier and Target EGFR/PI3Kp110β Signaling” (Cancers, 2022)
Read-outs that look alike come from different tables or passages of the source.

How the values were obtained:
U87MG-wtEGFR cells = assay: MTT cell viability, U87MG-wtEGFR; format: cell-based; details: 24 h; for cell death: screening 0.1-100 µM
Description: To analyze molecules’ cytotoxicity, U87MG and U87MG-wtEGFR cells were seeded into 96-well plates at a density of 2.5 × 10^4 cells/mL, and after 48 h were incubated with 0.1, 1, 10, or 100 µM of each molecule diluted in (non-supplemented) cell medium for 24 h. […] Dose–response data were also obtained for treatment with triton X-100 (positive control) and DMSO (vehicle; negative control). The cytotoxicity of selected molecules from initial screening was tested in HBMEC at 100 µM for 24 h. HBMEC were seeded at a density of 8 × 10^4 cell/mL in 96-well plates and after 48 h were incubated with the molecules.
(§1) In screening assays, cell viability was evaluated using thiazolyl blue tetrazolium bromide (MTT). Briefly, a culture medium containing 0.5 mg/mL of MTT was added to each well for 90 min at 37 °C. The supernatant was removed and the formed formazan crystals in viable cells were solubilized with 0.04 N HCl in isopropanol solution.

HBMEC [1] = assay: MTT cell viability, HBMEC; format: cell-based, human; details: 24 h, 100 µM
Description: (§2) To analyze molecules’ cytotoxicity, U87MG and U87MG-wtEGFR cells were seeded into 96-well plates at a density of 2.5 × 10^4 cells/mL, and after 48 h were incubated with 0.1, 1, 10, or 100 µM of each molecule diluted in (non-supplemented) cell medium for 24 h. The half-maximal effective concentration (EC50) of the most cytotoxic compounds was quantified. Dose–response data were also obtained for treatment with triton X-100 (positive control) and DMSO (vehicle; negative control). The cytotoxicity of selected molecules from initial screening was tested in HBMEC at 100 µM for 24 h. HBMEC were seeded at a density of 8 × 10^4 cell/mL in 96-well plates and after 48 h were incubated with the molecules.
as §1, with “solution. The absorbance was recorded using a microplate reader (Zenyth 3100, Anthos Labtec Instruments, Salzburg, Austria) at 595 nm, and values of cell viability were calculated as percentage of negative control.” for “solution.”

P-gp = P-gp expression in HBMEC (immunofluorescence); format: cell-based, human; details: U87MG EC50, 9 h
Source text: (§3) HBMEC in coverslips were stained for: the junctional protein β-catenin (1:100, Thermo Fisher Scientific, Waltham, MA, USA, #71-2700), the cytoskeleton protein F-actin (1:1000, Phalloidin dye, Abcam, Cambridge, UK, #ab17675), and the efflux transporter P-gp (1:50, Santa Cruz Biotechnology, Dallas, TX, USA, #sc-390883). HBMEC seeded on polyester inserts for transport assays were also stained for the junctional protein zonula occludens-1 (ZO-1, 1:200, Thermo Fisher Scientific, Waltham, MA, USA, #40-2200) and the cytoskeleton protein vimentin (1:100, Thermo Fisher Scientific, Waltham, MA, USA, #MA3745).
(§4) Incubations with primary antibodies occurred overnight at 4 °C. Incubation with the secondary antibodies Alexa Fluor 555 (1:500, Thermo Fisher Scientific, Waltham, MA, USA, #A21428) or Alexa Fluor 488 (1:500, Thermo Fisher Scientific, Waltham, MA, USA, #A11001) lasted for 1 h at room temperature. Nuclei were counterstained with Hoechst 33342 dye (1:1000, Thermo Fisher Scientific, Waltham, MA, USA, #33342) for 10 min. Before mounting with DPX (Merck Millipore, Burlington, MA, USA), cells were dehydrated with methanol. Negative controls were performed.
(§5) All acquired images were treated in ImageJ (NIH, Bethesda, MD, USA). Assessment of nuclear morphology following Hoechst staining was evaluated. For fluorescence intensity measures, the regions of interest were selected in Image J, and corresponding integrated densities were obtained. The representative 3D plots for BBB integrity were obtained by merged pixel intensity using the surface plot tool of Image J. For F-actin stress fibers analysis, the plot profile tool of Image J was used considering each defined cell-ferret diameter.

HBMEC [2] = assay: HBMEC integrity and morphology (β-catenin, F-actin immunofluorescence); format: cell-based, human
Source text: as §3, §4, §5
For analysis of β-catenin internalization and HBMEC morphological changes, Icy software was used. At least 5 cells per field were delineated and the conveyed values of membrane/interior pixels and roundness (area/perimeter^2) were exported and analyzed. Taking advantage of membrane staining (β-catenin), the BBB’s integrity was also analyzed by quantifying the total area of intercellular gaps in the HBMEC monolayer.

U87MG cells [3] = assay: MTT cell viability, U87MG; format: cell-based; details: 24 h; for EC50 / cell death: U87MG; for cell death: screening 0.1-100 µM
Description: as §2
as §1, with “solution. The absorbance was recorded using a microplate reader (Zenyth 3100, Anthos Labtec Instruments, Salzburg, Austria) at 595 nm, and values of cell viability were calculated as percentage of negative control.” for “solution.”

phospho-EGFR = assay: Immunofluorescence of phospho-EGFR in U87MG cells; format: cell-based
U87MG cells [4] = assay: Apoptotic cells by nuclear morphology (Hoechst) in U87MG; format: cell-based; details: for apoptotic cells: at EC50, 9 h
phospho-AKT = assay: Immunofluorescence of phospho-AKT in U87MG cells; format: cell-based; details: for inhibition of phospho-AKT expression: at EC50, after 6 h exposure
U87MG cells [5] = assay: BBB-GB co-culture model HBMEC:U87MG; format: cell-based
Description: To assess molecule cytotoxicity in GB cells after crossing the HBMEC monolayer, a co-culture BBB-GB model was used. HBMEC were seeded in the Transwell apparatus as described above. After 5 days, U87MG or U87MG-wtEGFR cells were seeded (1.2 × 10^5 cell/mL) in the lower chamber. After 3 days of co-culture, upper chamber content was replaced with fresh medium (control) or medium containing each molecule at respective EC50. After 2 h, inserts were removed and tested for barrier integrity by TEER readings and immunofluorescence analysis, whereas GB cells were maintained in culture for 24 h to further assess cell viability by MTT assay.

HBMEC monolayer = assay: Transwell in vitro BBB model: transport (UPLC-MS/MS) and barrier integrity; format: in vitro ADME, human
Description: To evaluate molecules’ BBB transport, a well-validated two-chamber BBB model, relying on the use of a microporous semipermeable membrane (Transwell insert) that separates the upper (luminal: “blood side”) and the lower (abluminal: “brain side”) chambers, was used as usual in our team. Briefly, HBMEC were seeded on polyester inserts (0.4 μm, Corning Costar Corp., New York, NY, USA) at a density of 8 × 10^4 cell/insert and treated after 8 days in culture. Inserts were coated with rat-tail collagen-I (BD Biosciences, Erembodegem, Aalst, Belgium) before seeding. Transport assays were conducted in Hank’s Balanced Salt Solution (HBSS, Gibco, Waltham, MA, USA) with calcium and magnesium, supplemented with 0.1% FBS.
Samples from upper and lower chambers were deproteinized using acetonitrile (ACN) (1:3) in ice-cold conditions, centrifuged at 15,300× g for 5 min at 4 °C and the respective supernatants were frozen until subsequent analysis.
The identification and quantification of molecules of interest were achieved by ultra-performance liquid chromatography–tandem mass spectrometry (UPLC-MS/MS) analysis using a triple quadrupole and Masslynx 4.1 software (Acquity TQ Waters). The separation of analytes was performed using a reversed-phase column Purospher STAR, RP-18 endcapped, 2 µm; Hibar HR 50-2.1 (Merck, Rahway, NJ, USA) at 35 °C, and a linear gradient (0.1% formic acid (A): ACN with 0.1% formic acid (B)) at a flow rate of 0.30 mL/min. The detection of analytes was based on electrospray ionization in the positive mode (ESI+) and acquisition in multiple reaction monitoring mode (MRM) at the following settings: ESI capillary voltage 3.0 kV, cone voltage 30 V, extractor voltage 1 V, RF lens voltage 0.1 V, desolvation gas flow 750 L/h at 350 °C, cone gas flow 50 L/h at 120 °C. Calibration curves were based on external standards using at least 8-points within the intended range, injected as duplicates. Analytes were quantified with a maximum deviation of 15% between the MRM1/MRM2 ratio. Each sample was injected in triplicate. Endothelial transport was calculated based on the ratio of lower compartment concentration and the sum of upper and lower compartments concentrations.
HBMEC monolayer integrity was ensured during BBB transport assays by TEER measurements and sodium-fluorescein paracellular permeability assessment, as previously described. TEER readings were performed using an EndOhm^TM chamber coupled to an EVOMX resistance meter (World Precision Instruments, Inc., Sarasota, FL, USA) and sodium fluorescein levels were measured using a Hitachi F-2000 fluorescence spectrophotometer.

U87MG cells [6] = assay: Abluminal conditioned medium of HBMEC on U87MG; format: cell-based; details: 24 h, MTT
Description: To evaluate disruptive effects in HBMEC monolayer when co-cultured, a transport assay using HBMEC monoculture was conducted. After 2 h of molecules incubation, the abluminal conditioned media were collected and used to supply U87MG or U87MG-wtEGFR cells for 24 h, which grew to confluence for 3 days. HBMEC were also tested for barrier integrity, and MTT assays were performed at the end of incubation.

U87 cells = test system: U87 cells; design: method as in PMID 34794398; details: depending on the incubation time; cited from earlier work
[7] = several cell-based studies; cited from earlier work
[8] = test system: patient-derived cell lines; design: method as in PMID 34794398; details: 72 h, read-out: median IC50; cited from earlier work
[9] = U87MG-wtEGFR, MTT, read-out: EC50

## Brc1ccc(Nc2ncnc3ccccc23)cc1 [Mol 17]
U87MG-wtEGFR cells; [9]
  EC50: 50.4 ± 5.21 µM
U87MG-wtEGFR cells; U87MG-wtEGFR, MTT
  cell death: ≥ 50%
HBMEC [1]; human
  impairment of HBMEC cell viability: about 65%
P-gp
  P-gp expression (mean intensity) in HBMEC: significant increase in P-gp mean intensity
HBMEC [2]; human, 9 h
  F-actin stress fibers per cell: highly increased the number of stress fibers/cell
  HBMEC shape (roundness): increased cell roundness
  disrupted barrier integrity (endothelial gaps), of control: 78%
  β-catenin expression and location: irregular and discontinuous appearance
U87MG cells [3]; Homo sapiens, U-87 MG
  EC50: 129 ± 14.5 µM
U87MG cells [3]
  cell death: ≥ 50%
phospho-EGFR; at EC50, 9 h
  phospho-EGFR expression, of that observed in control: about 30%
U87MG cells [4]
  apoptotic cells: ~40%

## CCCCN1CCCc2cc(CN(CCN3CCOCC3)C(=S)Nc3cc(F)cc(F)c3)ccc21 [Mol 19]
U87MG-wtEGFR cells; [9]
  EC50: 27.6 ± 5.91 µM
U87MG-wtEGFR cells; U87MG-wtEGFR, MTT
  cell death: ≥ 50%
phospho-AKT; at EC50, 1-9 h
  phosphorylated AKT expression compared with control: decreased expression
U87MG cells [5]; 2 h at EC50, mono- or co-culture system
  TEER of HBMEC: TEER readings were not decreased
U87MG cells [5]; added to upper chamber at EC50 for 2 h, MTT after 24 h
  U87MG cell viability in co-culture system: impaired
P-gp
  P-gp expression (mean intensity) in HBMEC: No significant changes in P-gp expression
HBMEC [2]
  HBMEC shape (roundness): no significant changes in HBMEC shape
  β-catenin expression and location: absence of changes in β-catenin expression and location
HBMEC monolayer; U87MG EC50
  HBMEC permeability to sodium fluorescein (Pe): no statistical differences between treated cells and control
HBMEC monolayer; U87MG EC50, 30 min
  TEER of HBMEC monolayer: None of the molecules markedly changed the TEER
HBMEC monolayer; UPLC-MS/MS
  endothelial transport efficiency, 30 vs. 120 min: transported across the HBMEC monolayer in a time-dependent manner
HBMEC monolayer; UPLC-MS/MS, 30 and 120 min
  transport across the BBB endothelium: could be transported across the BBB endothelium
U87MG cells [3]; Homo sapiens, U-87 MG
  EC50: 104 ± 14.9 µM
U87MG cells [3]
  cell death: ≥ 50%
U87MG cells [6]
  U87MG cell viability with basolateral conditioned medium of HBMEC: none of the molecules induced a statistically significant difference
U87MG cells [4]
  apoptotic cells: about 35%

## C=CC(=O)Nc1cc2c(Nc3ccc(F)c(Cl)c3)ncnc2cc1OCCCN1CCOCC1 [Mol 25, canertinib, reference compound]
U87MG-wtEGFR cells
  EC50: 11.3 ± 2.15 µM
U87MG-wtEGFR cells; U87MG-wtEGFR, MTT
  cell death: ≥ 50%
HBMEC [1]; human
  impairment of HBMEC cell viability: ~100%
phospho-AKT
  inhibition of phospho-AKT expression: > 50%
HBMEC [2]; human, 9 h
  HBMEC detachment: 100%
U87MG cells [3]; Homo sapiens, U-87 MG, 100 µM, GB cell line not given, read-out: viable cells
  viability at 100 µM: ~0%
U87MG cells [3]; Homo sapiens, U-87 MG
  EC50: 16.3 ± 2.26 µM
U87MG cells [3]
  cell death: ≥ 50%
phospho-EGFR; at EC50, 9 h
  reduction of mean intensity of phosphorylated EGFR: 92.6%
phospho-EGFR; at EC50, after 6 h exposure
  inhibition of phospho-EGFR expression: > 50%
U87MG cells [4]
  apoptotic cells: ~85%

## C=CC(=O)Nc1ccc2ncnc(Nc3cccc(Br)c3)c2c1 [Mol 27]
HBMEC [1]; MTT
  impairment of HBMEC cell viability: ~58%
phospho-AKT
  inhibition of phospho-AKT expression: > 50%
P-gp
  P-gp expression (mean intensity) in HBMEC: significant increase in P-gp mean intensity
HBMEC [2]; HBMEC, U87MG EC50, 9 h
  F-actin stress fibers per cell: highly increased the number of stress fibers/cell
  HBMEC shape (roundness): increased cell roundness
  β-catenin expression and location: irregular and discontinuous appearance
HBMEC [2]; HBMEC, U87MG EC50, 9 h, β-catenin staining
  disrupted barrier integrity (endothelial gaps), of control: 82%
U87MG cells [3]; Homo sapiens, U-87 MG
  EC50: 22.7 ± 2.22 µM
U87MG cells [3]
  cell death: ≥ 50%
U87MG cells [4]; at EC50, 6 h
  apoptotic cell death: 12.8%
U87MG cells [4]
  apoptotic cells: 31.9%

## Cn1nnc2c(C(N)=O)ncn2c1=O [TMZ, temozolomide]
U87 cells
  IC50: 124 to 230 µM
[7]
  doses at which more than 50% cytotoxicity was seen: up to 4000 µM
[8]
  IC50: 800 µM
